Measurements reported in ChEMBL document CHEMBL5500347, “An update on antibacterial AlkylGuanidino Ureas: Design of new derivatives, synergism with colistin and data analysis of the whole library” (2024).
In brackets after ≈: the same amount, converted by molar mass. Activity calls are given as the source filed them. The calls are words filed in the database; no cut-off is given here.

Legend:
Bacillus subtilis = assay: Antibacterial activity against Bacillus subtilis ATCC 6633 incubated for 18 to 24 hrs by CLSI based microdilution broth method; format: functional; conditions: time 18-24 hrs
Enterococcus faecalis = assay: Antibacterial activity against Enterococcus faecalis ATCC 19433 incubated for 18 to 24 hrs by CLSI based microdilution broth method; format: functional; conditions: time 18-24 hrs
Streptococcus pyogenes = assay: Antibacterial activity against Streptococcus pyogenes ATCC 12344 incubated for 18 to 24 hrs by CLSI based microdilution broth method; format: functional; conditions: time 18-24 hrs
Staphylococcus aureus = assay: Antibacterial activity against Staphylococcus aureus ATCC 25923 incubated for 18 to 24 hrs by CLSI based microdilution broth method; format: functional; conditions: time 18-24 hrs
Escherichia coli = assay: Antibacterial activity against Escherichia coli CCUGT incubated for 18 to 24 hrs by CLSI based microdilution broth method; format: functional; conditions: Escherichia coli, CCUGT; time 18-24 hrs; read-out: MIC
Klebsiella pneumoniae = assay: Antibacterial activity against Klebsiella pneumoniae ATCC 13833 incubated for 18 to 24 hrs by CLSI based microdilution broth method; format: functional; conditions: Klebsiella pneumoniae, ATCC 13833; time 18-24 hrs; read-out: MIC
Acinetobacter baumannii [1] = assay: Antibacterial activity against Acinetobacter baumannii ATCC 17978 incubated for 18 to 24 hrs by CLSI based microdilution broth method; format: functional; conditions: Acinetobacter baumannii, ATCC 17978; time 18-24 hrs
Pseudomonas aeruginosa [2] = assay: Antibacterial activity against Pseudomonas aeruginosa ATCC 27853 incubated for 18 to 24 hrs by CLSI based microdilution broth method; format: functional; conditions: Pseudomonas aeruginosa, ATCC 27853; time 18-24 hrs
Acinetobacter baumannii [3] = assay: Antibacterial activity against Acinetobacter baumannii ATCC 17978 at 256 ug/ml incubated for 18 to 24 hrs by CLSI based microdilution broth method; format: functional, organism-based; conditions: dose 256.0 µg/ml, time 18-24 hrs
Pseudomonas aeruginosa [4] = assay: Antibacterial activity against Pseudomonas aeruginosa ATCC 27853 at 256 ug/ml incubated for 18 to 24 hrs by CLSI based microdilution broth method; format: functional, organism-based; conditions: dose 256.0 µg/ml, time 18-24 hrs

| SMILES | MIC (Bacillus subtilis) | MIC (Enterococcus faecalis) | MIC (Streptococcus pyogenes) | MIC (Staphylococcus aureus) | MIC (Escherichia coli) | MIC (Klebsiella pneumoniae) | MIC (Acinetobacter baumannii [1]) | MIC (Pseudomonas aeruginosa [2]) | Activity (Acinetobacter baumannii [3]) | Activity (Pseudomonas aeruginosa [4]) |
| --- | --- | --- | --- | --- | --- | --- | --- | --- | --- | --- |
| CSCCNC(=N)NCCCCCCCCN(CCCCCCCCNC(=N)N)C(=O)N(CCCCCCCCNC(=N)N)CCCCCCCCNC(=N)NCCSC.O=C(O)C(F)(F)F | 1 µg/mL | 2 µg/mL | 1 µg/mL | 0.5 µg/mL | 2 µg/mL | 4 µg/mL | 16 µg/mL | 32 µg/mL | – | – |
| CCCCNC(=N)NCCCCCCCCN(CCCCCCCCNC(=N)N)C(=O)N(CCCCCCCCNC(=N)N)CCCCCCCCNC(=N)NCCCC.O=C(O)C(F)(F)F | 1 µg/mL | 2 µg/mL | 2 µg/mL | 1 µg/mL | 2 µg/mL | 2 µg/mL | 4 µg/mL | 8 µg/mL | – | – |
| C/C=C/CNC(=N)NCCCCCCCCN(CCCCCCCCNC(=N)N)C(=O)N(CCCCCCCCNC(=N)N)CCCCCCCCNC(=N)NC/C=C/C.O=C(O)C(F)(F)F | 2 µg/mL | 2 µg/mL | 2 µg/mL | 1 µg/mL | 2 µg/mL | 2 µg/mL | 8 µg/mL | 16 µg/mL | – | – |
| N=C(N)NCCCCCCCCN(CCCCCCCCNC(=N)NCCC12CC3CC(CC(C3)C1)C2)C(=O)N(CCCCCCCCNC(=N)N)CCCCCCCCNC(=N)NCCC12CC3CC(CC(C3)C1)C2.O=C(O)C(F)(F)F | 16 µg/mL | 16 µg/mL | 16 µg/mL | 8 µg/mL | 32 µg/mL | 32 µg/mL | 64 µg/mL | 128 µg/mL | – | – |
| C/C=C/CNC(=N)NCCCCCCCCNC(N)=O.O=C(O)C(F)(F)F | 64 µg/mL | 64 µg/mL | 32 µg/mL | 32 µg/mL | 128 µg/mL | 128 µg/mL | – | – | inactive | inactive |
| CCCCCCCCCC(=O)N[C@@H](Cc1c[nH]c2ccccc12)C(=O)N[C@H](CC(N)=O)C(=O)N[C@@H](CC(=O)O)C(=O)N[C@@H]1C(=O)NCC(=O)N[C@@H](CCCN)C(=O)N[C@@H](CC(=O)O)C(=O)N[C@H](C)C(=O)N[C@@H](CC(=O)O)C(=O)NCC(=O)N[C@H](CO)C(=O)N[C@@H]([C@H](C)CC(=O)O)C(=O)N[C@@H](CC(=O)c2ccccc2N)C(=O)O[C@@H]1C | 1 µg/mL (≈ 0.617 µM) | 1 µg/mL (≈ 0.617 µM) | 0.5 µg/mL (≈ 0.309 µM) | 0.12 µg/mL (≈ 0.074 µM) | – | – | – | – | – | – |
| CC(C)CNC(=N)NCCCCCCCCN(CCCCCCCCNC(=N)N)C(=O)N(CCCCCCCCNC(=N)N)CCCCCCCCNC(=N)NCC(C)C.O=C(O)C(F)(F)F | 2 µg/mL | 4 µg/mL | 4 µg/mL | 2 µg/mL | 4 µg/mL | 4 µg/mL | 8 µg/mL | 16 µg/mL | – | – |
| CN[C@H](CC(C)C)C(=O)N[C@H]1C(=O)N[C@@H](CC(N)=O)C(=O)N[C@H]2C(=O)N[C@H]3C(=O)N[C@H](C(=O)N[C@H](C(=O)O)c4cc(O)cc(O)c4-c4cc3ccc4O)[C@H](O)c3ccc(c(Cl)c3)Oc3cc2cc(c3O[C@@H]2O[C@H](CO)[C@@H](O)[C@H](O)[C@H]2O[C@H]2C[C@](C)(N)[C@H](O)[C@H](C)O2)Oc2ccc(cc2Cl)[C@H]1O [VANCOMYCIN] | 0.5 µg/mL (≈ 0.345 µM) | 1 µg/mL (≈ 0.69 µM) | 1 µg/mL (≈ 0.69 µM) | – | – | – | – | – | – | – |
| CC(C)NC(=N)NCCCCCCCCN(CCCCCCCCNC(=N)N)C(=O)N(CCCCCCCCNC(=N)N)CCCCCCCCNC(=N)NC(C)C.O=C(O)C(F)(F)F | 0.5 µg/mL | 0.5 µg/mL | 0.5 µg/mL | 0.25 µg/mL | 0.5 µg/mL | 1 µg/mL | 8 µg/mL | 8 µg/mL | – | – |
| CC(C)=CCC/C(C)=C/CNC(=N)NCCCCCCCCN(CCCCCCCCNC(=N)N)C(=O)N(CCCCCCCCNC(=N)N)CCCCCCCCNC(=N)NC/C=C(\C)CCC=C(C)C.O=C(O)C(F)(F)F | 2 µg/mL | 2 µg/mL | 2 µg/mL | 1 µg/mL | 2 µg/mL | 2 µg/mL | 4 µg/mL | 8 µg/mL | – | – |
| N=C(N)NCCCCCCCCN(CCCCCCCCNC(=N)NCCN1CCOCC1)C(=O)N(CCCCCCCCNC(=N)N)CCCCCCCCNC(=N)NCCN1CCOCC1.O=C(O)C(F)(F)F | 1 µg/mL | 2 µg/mL | 1 µg/mL | 1 µg/mL | 4 µg/mL | 4 µg/mL | 32 µg/mL | 64 µg/mL | – | – |

Second part, led by results:

| MIC (Bacillus subtilis) | MIC (Enterococcus faecalis) | MIC (Streptococcus pyogenes) | MIC (Staphylococcus aureus) | MIC (Escherichia coli) | MIC (Klebsiella pneumoniae) | MIC (Acinetobacter baumannii [1]) | MIC (Pseudomonas aeruginosa [2]) | SMILES | Activity (Acinetobacter baumannii [3]) | Activity (Pseudomonas aeruginosa [4]) |
| --- | --- | --- | --- | --- | --- | --- | --- | --- | --- | --- |
| 2 µg/mL | 4 µg/mL | 4 µg/mL | 1 µg/mL | 16 µg/mL | 8 µg/mL | 32 µg/mL | 32 µg/mL | N=C(N)NCCCCCCCN(CCCCCCCNC(=N)NCC1CC1)C(=O)N(CCCCCCNC(=N)N)CCCCCCNC(=N)NCC1CC1.O=C(O)C(F)(F)F | – | – |
| 0.5 µg/mL | 1 µg/mL | 0.5 µg/mL | 0.5 µg/mL | 1 µg/mL | 2 µg/mL | 8 µg/mL | 16 µg/mL | COCCNC(=N)NCCCCCCCCN(CCCCCCCCNC(=N)N)C(=O)N(CCCCCCCCNC(=N)N)CCCCCCCCNC(=N)NCCOC.O=C(O)C(F)(F)F | – | – |
| 4 µg/mL | 8 µg/mL | 4 µg/mL | 4 µg/mL | 16 µg/mL | 16 µg/mL | 64 µg/mL | 128 µg/mL | CNC(=O)NCCCCCCCCN(CCCCCCCCNC(=N)NCC1CC1)C(=O)N(CCCCCCCCNC(=N)NCC1CC1)CCCCCCCCNC(=O)NC.O=C(O)C(F)(F)F | – | – |
| 1 µg/mL | 1 µg/mL | 1 µg/mL | 0.5 µg/mL | 0.5 µg/mL | 1 µg/mL | 8 µg/mL | 8 µg/mL | CCCNC(=N)NCCCCCCCCN(CCCCCCCCNC(=N)N)C(=O)N(CCCCCCCCNC(=N)N)CCCCCCCCNC(=N)NCCC.O=C(O)C(F)(F)F | – | – |
| 4 µg/mL | 4 µg/mL | 4 µg/mL | 2 µg/mL | 8 µg/mL | 16 µg/mL | 128 µg/mL | 64 µg/mL | CNC(=S)NCCCCCCCCN(CCCCCCCCNC(=N)NCC1CC1)C(=O)N(CCCCCCCCNC(=N)NCC1CC1)CCCCCCCCNC(=S)NC.O=C(O)C(F)(F)F | – | – |
| 4 µg/mL | 4 µg/mL | 4 µg/mL | 1 µg/mL | 8 µg/mL | 4 µg/mL | 64 µg/mL | 128 µg/mL | N=C(N)NCCCCCCCCN(CCCCCCCCNC(=N)NCC1CC1)C(=O)N(CCCCCCCCNC(=N)N)CCCCCCNC(=N)NCC1CC1.O=C(O)C(F)(F)F | – | – |
| 1 µg/mL | 1 µg/mL | 1 µg/mL | 0.25 µg/mL | 1 µg/mL | 1 µg/mL | 4 µg/mL | 8 µg/mL | N=C(N)NCCCCCCCCN(CCCCCCCCNC(=N)NC1CCCC1)C(=O)N(CCCCCCCCNC(=N)N)CCCCCCCCNC(=N)NC1CCCC1.O=C(O)C(F)(F)F | – | – |
| 1 µg/mL | 8 µg/mL | 1 µg/mL | 0.25 µg/mL | 4 µg/mL | 4 µg/mL | 64 µg/mL | 128 µg/mL | N=C(N)NCCCCCCCCN(CCCCCCNC(=N)NCC1CC1)C(=O)N(CCCCCCCCNC(=N)N)CCCCCCNC(=N)NCC1CC1.O=C(O)C(F)(F)F | – | – |
| 4 µg/mL | 4 µg/mL | 2 µg/mL | 4 µg/mL | 8 µg/mL | 16 µg/mL | 8 µg/mL | 16 µg/mL | N=C(N)NCCCCCCCCCN(CCCCCCCCCNC(=N)NCC1CC1)C(=O)N(CCCCCCCCCNC(=N)N)CCCCCCCCCNC(=N)NCC1CC1.O=C(O)C(F)(F)F | – | – |
| 2 µg/mL | 4 µg/mL | 1 µg/mL | 0.5 µg/mL | 8 µg/mL | 4 µg/mL | 16 µg/mL | 16 µg/mL | N=C(N)NCCCCCCCCN(CCCCCCCCNC(=N)NCC1CC1)C(=O)N(CCCCCCNC(=N)N)CCCCCCNC(=N)NCC1CC1.O=C(O)C(F)(F)F | – | – |
| 0.5 µg/mL | 1 µg/mL | 0.5 µg/mL | 0.25 µg/mL | 1 µg/mL | 1 µg/mL | 16 µg/mL | 16 µg/mL | N=C(N)NCCCCCCCCN(CCCCCCCCNC(=N)NCC1CC1)C(=O)N(CCCCCCCCNC(=N)NCC1CC1)CCCCCCNC(=N)N.O=C(O)C(F)(F)F | – | – |
| 32 µg/mL | 8 µg/mL | 8 µg/mL | 4 µg/mL | 16 µg/mL | 16 µg/mL | 64 µg/mL | 128 µg/mL | O=C(O)C(F)(F)F.[N-]=[N+]=NCCCCCCCCN(CCCCCCCCNC(=N)NCC1CC1)C(=O)N(CCCCCCCCN=[N+]=[N-])CCCCCCCCNC(=N)NCC1CC1 | – | – |
| 2 µg/mL | 8 µg/mL | 4 µg/mL | 2 µg/mL | 8 µg/mL | 8 µg/mL | 32 µg/mL | 32 µg/mL | N=C(N)NCCCCCCCN(CCCCCCCNC(=N)NCC1CC1)C(=O)N(CCCCCCCNC(=N)N)CCCCCCCNC(=N)NCC1CC1.O=C(O)C(F)(F)F | – | – |
| 1 µg/mL | 4 µg/mL | 1 µg/mL | 0.25 µg/mL | 2 µg/mL | 2 µg/mL | 32 µg/mL | 32 µg/mL | N=C(N)NCCCCCCN(CCCCCCCCNC(=N)NCC1CC1)C(=O)N(CCCCCCCCNC(=N)NCC1CC1)CCCCCCNC(=N)N.O=C(O)C(F)(F)F | – | – |
